# Laboratory results taken from US20260125645A1, “METHODS AND PHARMACOLOGICAL AGENTS FOR INCREASING EXPANSION, ENGRAFTMENT OR IMMUNE OUTPUT OF HUMAN HEMATOPOIETIC STEM CELLS IN TRANSPLANTATION AND DISEASE SETTINGS” (VALORISATION HSJ, LIMITED PARTNERSHIP, priority 2022, published 2026).
# Key:
# [1] = test system: cord-blood CD34^+ cells (HSC); assay: Human immune engraftment (% hCD45) in irradiated NSG mice injected with the progeny of ex vivo cultured cord-blood CD34+ cells
# Procedure: The progeny of 7,500 cord-blood CD34+ cells was cultured under modified air-liquid interface (ALI) conditions for 10 days and injected in irradiated adult NSG mice. Cells were cultured in cytokine-containing (SCF, TPO, FLT-3L) serum-free media (StemSpan™ SFEM, LDL) containing UM729 (40 nM) with or without the addition of aryl hydrocarbon receptor (AhR) receptor antagonist CH-223191 (1 μM). Human immune reconstitution, expressed by the percentage of human CD45 (hCD45) over total CD45, was monitored in peripheral blood after 7, 14 and 25 weeks post-transplantation by flow cytometry. Mean percentage of human CD45 cell engraftment for 2 mice per condition is shown. […]
# Since the ultimate aim is to improve the expansion of engraftable human HSC, the validation methods largely rely on the measurement of immune reconstitution, both short-term and long-term, after transplantation in a humanized mice model. Briefly, NSG mice (Jackson Laboratories, strain 005557) were sublethally irradiated at 2Gy 4 to 24 hours prior to CD34^+ cells intravenous (IV) injection. All harvested cells from 1 culture well were injected into one mouse. Wells from all conditions started with equal numbers of CD34^+ cells from the same source/donor. Therefore, all the progeny of a culture setting was injected into mice. Peripheral blood of humanized mice was harvested every 5 weeks, and human engraftment and immune reconstitution were analyzed by flow cytometry. The earliest point where human engraftment in mice was measured was after 5 weeks and the latest after 35 weeks. The impact of the ALI culture system on HSC engraftment capacity was assessed using base media purchased from STEMCELL Technologies (StemSpan SFEM). A dramatic effect of the ALI methodology on the engraftment of cord-blood HSC was observed relative to the published manual fed-batch culture methodology^4, which includes SCF, TPO, FLT3L and UM171 (FIG. 4).
# [2] = test system: Cord-blood CD34^+ cells; assay: Ex vivo expansion of the CD34+ population from cord-blood CD34+ cells, counted by flow cytometry; type: cell-based, human; conditions: for expansion in CD34^+ population: UM171 40 nM, 10 days, SCF/TPO/FLT-3L StemSpan SFEM II
# Procedure: Cord-blood CD34^+ cells were cultured under manual fed-batch (FB) or modified air-liquid interface (ALI) conditions for 10 days. Cells were cultured in cytokine-containing (SCF, TPO, FLT-3L) serum-free media (StemSpan™ SFEM II) where UM171 (40 nM) was added. CD34^+ cells total number was assessed by flow cytometry using […] beads (BD).
# The progeny of 7,500 cord-blood CD34^+ cells was cultured under manual fed-batch (FB) conditions for 6 days and injected in irradiated adult NSG mice. Cells were cultured in cytokine-containing (SCF, TPO, FLT-3L) serum-free media (StemSpan SFEM II) where UM729 (500 nM) or a HTR1F-specific agonist LY573144 (250 nM final concentration) was added. The progeny of an equal number of CD34^+ cells cultured in the same conditions but without UM729 or LY573144 from the same source was used to determine baseline expansion (threshold indicated by the dotted line) and engraftment. Expansion fold, compared to untreated condition, of the CD34^+ population after 6 days of ex vivo culture is shown in the left panel. Human immune reconstitution was monitored in peripheral blood (middle panel) and bone marrow (right panel) at week 25 post-transplantation as described above. Mean percentage of human CD45 cell engraftment for 2 mice per condition is shown.
# An experimental setup was designed where oxygen exchange in the media would be maximized, while adopting the principles of fed-batch cultures (FB) in which medium is renewed and in sufficient quantity to provide nutrients while diluting cell waste. […] In doing so, the maximum of cells was placed directly at the air-liquid interface so that gas exchanges are more efficient. Briefly, HSC were enriched based on CD34 expression marker, from cord-blood units using the Miltenyi CD34 MicroBead Kit UltraPure according to manufacturer's instruction. Purity was determined by flow cytometry using monoclonal CD34-PE antibodies (Clone 581, BD Pharmingen, 555822). […]
# Using this culture method, the expansion of the stem cell population (defined as CD34^+ cells) in the culture wells after 10 days was first assessed. […]
# [3] = test system: human CB CD34+ (HSC engraftment); assay: In vivo administration of HTR1F agonist to NSG mice humanized with uncultured cord-blood CD34+ cells; human chimerism by flow cytometry; conditions: 0.3 mg (10 mg/kg) intraperitoneally at 6 h, 24 h, 48 h
# Procedure: 38,000 human CB CD34+ were injected intravenously into irradiated NSG mice (n=8, 16 hrs after irradiation). Starting from 6 hours post-transplantation, half of the mice (n=4) received, by intraperitoneal injection, 0.3 mg of Lasmiditan diluted in 0.02% DMSO in PBS (drug), for a total of 4 doses in regular intervals (6 h, 24 h, 48 h and 72 h) after human HSC injection. The second half (control) received I.P. injection of vehicle (0.02% DMSO in PBS) (n=4; vehicle). Human chimerism was assessed on peripheral blood until 19 weeks post-transplantation as described above, after which time mice were sacrificed and spleen and bone marrow were analyzed. SEM are depicted.
# Lasmiditan, purchased from AdooQ Bioscience (product number A14198), was dissolved in DMSO and ethanol solution. […] Purity and viability were assessed by flow cytometry using the following staining: CD34-APC (Biolegend 343510), CD19-PE (Biolegend, 302208), CD3-PE-Cy7 (Biolegend, 344816), CD45-APC-Cy7 (Biolegend, 368516), 7-AAD (BD Biosciences, 559925), 1 μL AnnV-FITC (Biolegend, 640906). […] The dose was determined based on previous work with LY344864 (used ex vivo above, FIG. 10) in kidney injury recovery studies^16 and is consistent with the dosage of Reyvow® (Lasmiditan) for the treatment of migraine. […]
# [4] = progeny of FB culture with LY573144 250 nM for 6 days, 25 weeks after injection
compound,measurement,setting,value
Cc1ccccc1N=Nc1ccc(NC(=O)c2ccnn2C)c(C)c1 [CH-223191],engraftment capacity of cultured HSC (% hCD45 in peripheral blood),"[1]; CH-223191 1 μM added to ALI culture containing UM729, 10 days, blood at 7, 14 and 25 weeks, vs without CH-223191",did not further increase the engraftment capacity
"CN(C)[C@@H]1CCc2[nH]c3ccc(NC(=O)c4ccc(F)cc4)cc3c2C1.Cl [LY344864, N-[(3R)-3-(Dimethylamino)-2,3,4,9-tetrahydro-1H-carbazol-6-yl]-4-fluorobenzamide hydrochloride]",peripheral blood engraftment (% hCD45),"[1]; LY344864 500 nM in StemSpan SFEM II with SCF/TPO/FLT-3L, 10 days, specifically ALI culture, vs media alone",greatly improved the peripheral blood engraftment
"CN1CCC(C(=O)c2cccc(NC(=O)c3c(F)cc(F)cc3F)n2)CC1 [LY573144, 2,4,6-Trifluoro-N-[6-[(1-methyl-4-piperidinyl)carbonyl]-2-pyridinyl]benzamide]",expansion of the CD34^+ population compared to untreated condition,"[2]; LY573144 250 nM, FB culture, 6 days",two-fold
same,percentage of hCD45^+ cells in the blood,[1]; [4],higher percentages
same,percentage of hCD45^+ cells in the bone marrow,[1]; [4],higher percentages
same,presence of human immune cells (hCD45^+) in tissues of treated animals,"[3]; 72 h, analysed up to 19 weeks","found in blood, spleen and bone marrow"
same,reconstitution of the immune compartment (human chimerism),"[3]; 72 h after 38,000 CD34+ cells, followed to 19 weeks, vs vehicle",more robust reconstitution of the immune compartment
"N[C@@H](Cc1cc(I)c(Oc2ccc(O)c(I)c2)c(I)c1)C(=O)O [T3, triiodothyronine]",engraftment of HSC in humanized mice (% hCD45+ lymphocytes in peripheral blood),"[1]; T3 45 ng/mL in SCF/TPO/FLT3L StemSpan SFEM containing UM171, FB culture 10 days, vs UM171 alone or with CH-223191",increased the engraftment of HSC
Cn1nnc(-c2ccc3c(c2)[nH]c2nc(Cc4ccccc4)nc(NC4CCC(N)CC4)c23)n1 (stereo not shown) [UM171],expansion in CD34^+ population,[2]; ALI culture,~55 fold
same,expansion in CD34^+ population,[2]; fed-batch (FB) culture,~55 fold
